Results as given in patent US7932262B2 (Novartis AG, priority 2006, dated 2011).
Where two headings read alike, the source gives them in different places.

Experiments:
PDK1 kinase = molecular target: T1, PDK1 kinase (Homo sapiens, UniProt O15530); assay: PDK1 Kinase Alpha Screen Assay; assay type: biochemical; settings: read-out: PDK1 IC50
T1 sequence (O15530 1-556): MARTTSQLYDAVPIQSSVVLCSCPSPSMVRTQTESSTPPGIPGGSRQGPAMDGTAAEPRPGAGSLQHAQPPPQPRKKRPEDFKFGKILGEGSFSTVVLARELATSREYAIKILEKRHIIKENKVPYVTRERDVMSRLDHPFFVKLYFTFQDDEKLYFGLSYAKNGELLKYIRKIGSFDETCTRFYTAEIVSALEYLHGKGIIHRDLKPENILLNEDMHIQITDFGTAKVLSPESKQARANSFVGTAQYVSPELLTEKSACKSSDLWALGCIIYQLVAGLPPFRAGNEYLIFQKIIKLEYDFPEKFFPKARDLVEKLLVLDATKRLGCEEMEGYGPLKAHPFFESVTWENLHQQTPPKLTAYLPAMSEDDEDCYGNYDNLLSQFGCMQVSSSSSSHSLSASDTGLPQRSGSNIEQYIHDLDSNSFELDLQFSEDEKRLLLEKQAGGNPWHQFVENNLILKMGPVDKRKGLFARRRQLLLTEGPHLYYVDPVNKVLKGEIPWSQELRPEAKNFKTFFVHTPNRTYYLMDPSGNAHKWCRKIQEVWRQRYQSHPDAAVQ
In short: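 Biotinylated PDK1-4 peptide (50 nM) phosphorylated by PDK1 with 10 uM ATP in pH 7.5 Tris/MgCl2/DTT buffer, 2.5% DMSO, for 3-18 hours. EDTA stop, then AlphaScreen detection with phospho-(Ser/Thr) PKA substrate antibody and protein A/streptavidin beads after overnight room-temperature development.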

A2780 cells = assay: Cell Proliferation Assay (Cell Titer Glo), A2780; assay type: cell-based; settings: Homo sapiens, read-out: CPEC50 A2780
In short: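 Cells seeded at 1000/well, allowed to adhere 3-5 h, then exposed to DMSO-dissolved compounds for 3 days at 37° C., 5% CO2. Medium replaced before Cell Titer Glo addition; luminescence read after 10 min.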

[1] = cell proliferation, A2780 cells
[2] = 72 h, A2780 cells, 3 days incubation
[3] = Cell Proliferation Assay, A2780

Row | Structure (SMILES) | IC50 (PDK1 kinase; PDK1 Kinase Alpha Screen Assay) [µM] | EC50 (A2780 cells; [1]) [µM] | IC50 (PDK1 kinase) [µM] | EC50 (A2780 cells; [2]) [µM] | other results
1 | Nc1ncc(-c2ccc3cnc(Nc4ccc(S(N)(=O)=O)cc4)nc3c2OC2CCNCC2)cn1 [Compound 857, 4-(7-(2-aminopyrimidin-5-yl)-8-(piperidin-4-yloxy)quinazolin-2-ylamino)benzenesulfonamide] | < 5 | 5 to 10 | – | – | –
2 | NS(=O)(=O)c1ccc(Nc2ncc3ccc(-c4cccnc4)c(-c4cccnc4)c3n2)cc1 [Compound 899, 4-(7,8-di(pyridin-3-yl)quinazolin-2-ylamino)benzenesulfonamide] | < 5 | < 5 | – | – | –
3 | Cc1n[nH]c(C)c1-c1ccc2cnc(Nc3ccc(S(N)(=O)=O)cc3)nc2c1 [Compound 865, 4-(7-(3,5-dimethyl-1H-pyrazol-4-yl)quinazolin-2-ylamino)benzenesulfonamide] | < 5 | < 5 | – | – | –
4 | O=S(=O)(c1ccc(Nc2ncc3ccc(-c4cn[nH]c4)cc3n2)cc1)N1CCOCC1 [Compound 868, N-(4-(morpholinosulfonyl)phenyl)-7-(1H-pyrazol-4-yl)quinazolin-2-amine] | < 5 | < 5 | – | – | –
5 | NS(=O)(=O)c1ccc(Nc2ncc3cccc(CNC4CCCCC4)c3n2)cc1 [Compound 921, 4-(8-((cyclohexylamino)methyl)quinazolin-2-ylamino)benzenesulfonamide] | – | – | < 5 | – | EC50 (A2780 cells; A2780 cells): < 5 µM
6 | NS(=O)(=O)c1ccc(Nc2ncc3ccc(-c4ccc(N5CCOCC5)nc4)cc3n2)cc1 [Compound 881] | < 5 | < 5 | – | – | –
7 | NS(=O)(=O)c1ccc(Nc2ncc3ccc(-c4cnoc4)cc3n2)cc1 [Compound 866, 4-(7-(isoxazol-4-yl)quinazolin-2-ylamino)benzenesulfonamide] | < 5 | < 5 | – | – | –
8 | Nc1cc(-c2cccc3cnc(Nc4ccc(S(N)(=O)=O)cc4)nc23)ccn1 [Compound 109, 4-[8-(2-Amino-pyridin-4-yl)-quinazolin-2-ylamino]-benzenesulfonamide] | – | – | < 5 | 5 to 10 | –
9 | NS(=O)(=O)c1ccc(Nc2ncc3cccc(C(=O)NC4CCNCC4)c3n2)cc1 [Compound 142, 2-(4-Sulfamoyl-phenylamino)-quinazoline-8-carboxylic acid piperidin-4-ylamide] | – | – | < 5 | 5 to 10 | –
10 | NS(=O)(=O)c1ccc(Nc2ncc3cccc(O[C@H]4CCNC4)c3n2)cc1 [Compound 32, 4-[8-((S)-Pyrrolidin-3-yloxy)-quinazolin-2-ylamino]-benzenesulfonamide] | – | – | < 5 | < 5 | –
11 | NS(=O)(=O)c1ccc(Nc2ncc3ccc(-c4ccc5c(c4)CCNC5=O)c(OC4CCNCC4)c3n2)cc1 [Compound 64, 4-[7-(1-Oxo-1,2,3,4-tetrahydro-isoquinolin-6-yl)-8-(piperidin-4-yloxy)-quinazolin-2-ylamino]-benzenesulfonamide] | – | – | < 5 | 5 to 10 | –
12 | CN1CCN(C(=O)c2cccc3cnc(Nc4ccc(S(N)(=O)=O)cc4)nc23)CC1 [Compound 121, 4-[8-(4-Methyl-piperazine-1-carbonyl)-quinazolin-2-ylamino]-benzenesulfonamide] | – | – | < 5 | 5 to 10 | –
13 | CC(=O)Nc1cccc(-c2cccc3cnc(Nc4ccc(S(N)(=O)=O)cc4)nc23)c1 [Compound 93, N-{3-[2-(4-Sulfamoyl-phenylamino)-quinazolin-8-yl]-phenyl}-acetamide] | – | – | < 5 | < 5 | –
14 | CC(=O)NCCNc1ccc(-c2cc(F)cc3cnc(Nc4ccc(S(N)(=O)=O)cc4)nc23)cn1 [Compound 891, N-(2-(5-(6-fluoro-2-(4-sulfamoylphenylamino)quinazolin-8-yl)pyridin-2-ylamino)ethyl)acetamide] | < 5 | < 5 | – | – | –
15 | NS(=O)(=O)c1ccc(Nc2ncc3cccc(CN4CCCC4)c3n2)cc1 [Compound 903, 4-(8-(pyrrolidin-1-ylmethyl)quinazolin-2-ylamino)benzenesulfonamide] | < 5 | < 5 | – | – | –
16 | NS(=O)(=O)c1ccc(Nc2ncc3ccc(-c4ncco4)c(OC4CCNCC4)c3n2)cc1 [Compound 861, 4-(7-(oxazol-2-yl)-8-(piperidin-4-yloxy)quinazolin-2-ylamino)benzenesulfonamide] | < 5 | < 5 | – | – | –
17 | COCCNC(=O)c1cccc2cnc(Nc3ccc(S(N)(=O)=O)cc3)nc12 [Compound 114, 2-(4-Sulfamoyl-phenylamino)-quinazoline-8-carboxylic acid (2-methoxy-ethyl)-amide] | – | – | 5 to 10 | < 5 | –

Row | Structure (SMILES) | IC50 (PDK1 kinase; PDK1 Kinase Alpha Screen Assay) [µM] | EC50 (A2780 cells; [1]) [µM] | IC50 (PDK1 kinase) [µM] | EC50 (A2780 cells; [2]) [µM] | other results
18 | NS(=O)(=O)c1ccc(Nc2ncc3cccc(-c4ccncc4)c3n2)cc1 [Compound 99, 4-(8-Pyridin-4-yl-quinazolin-2-ylamino)-benzenesulfonamide] | – | – | < 5 | 5 to 10 | –
19 | CN1CCN(c2ccc(-c3ccc4cnc(Nc5ccc(S(N)(=O)=O)cc5)nc4c3)cn2)CC1 [Compound 879, 4-(7-(6-(4-methylpiperazin-1-yl)pyridin-3-yl)quinazolin-2-ylamino)benzenesulfonamide] | < 5 | < 5 | – | – | –
20 | NS(=O)(=O)c1ccc(Nc2ncc3ccc(-c4ccc(NCCN5CCCC5)nc4)cc3n2)cc1 [Compound 878, 4-(7-(6-(2-(pyrrolidin-1-yl)ethylamino)pyridin-3-yl)quinazolin-2-ylamino)benzenesulfonamide] | < 5 | < 5 | – | – | –
21 | CN1CCC(NC(=O)c2ccc3cnc(Nc4ccc(S(N)(=O)=O)cc4)nc3c2)CC1 [Compound 119, 2-(4-Sulfamoyl-phenylamino)-quinazoline-7-carboxylic acid (1-methyl-piperidin-4-yl)-amide] | – | – | < 5 | 5 to 10 | –
22 | Cn1cc(-c2ccc3cnc(Nc4ccc(S(N)(=O)=O)cc4)nc3c2OC2CCNCC2)cn1 [Compound 860, 4-(7-(1-methyl-1H-pyrazol-4-yl)-8-(piperidin-4-yloxy)quinazolin-2-ylamino)benzenesulfonamide] | < 5 | < 5 | – | – | –
23 | Nc1ccc(-c2ccc3cnc(Nc4ccc(S(N)(=O)=O)cc4)nc3c2OC2CCNCC2)cn1 [Compound 856, 4-(7-(6-aminopyridin-3-yl)-8-(piperidin-4-yloxy)quinazolin-2-ylamino)benzenesulfonamide] | < 5 | < 5 | – | – | –
24 | N#Cc1ccc2cnc(Nc3ccc(S(N)(=O)=O)cc3)nc2c1OC1CCNCC1 [Compound 29, 4-[7-Cyano-8-(piperidin-4-yloxy)-quinazolin-2-ylamino]-benzenesulfonamide] | – | – | < 5 | < 5 | –
25 | Cn1cc(-c2ccc3cnc(Nc4ccc(S(N)(=O)=O)cc4)nc3c2-c2cnn(C)c2)cn1 [Compound 898, 4-(7,8-bis(1-methyl-1H-pyrazol-4-yl)quinazolin-2-ylamino)benzenesulfonamide] | < 5 | < 5 | – | – | –
26 | NS(=O)(=O)c1ccc(Nc2ncc3cccc(C(=O)NCCN4CCCC4)c3n2)cc1 [Compound 115, 2-(4-Sulfamoyl-phenylamino)-quinazoline-8-carboxylic acid (2-pyrrolidin-1-yl-ethyl)-amide] | – | – | 5 to 10 | < 5 | –
27 | NS(=O)(=O)c1ccc(Nc2ncc3cccc(-c4ccnc(F)c4)c3n2)cc1 [Compound 97, 4-[8-(2-Fluoro-pyridin-4-yl)-quinazolin-2-ylamino]-benzenesulfonamide] | – | – | < 5 | < 5 | –
28 | NCCOc1cccc2cnc(Nc3ccccc3)nc12 [Compound 507, 8-(2-aminoethoxy)-N-phenylquinazolin-2-amine] | < 5 | – | – | – | EC50 (A2780 cells; [3]): 5 to 10 µM
29 | CC(=O)Nc1ccc2cnc(Nc3ccc(S(N)(=O)=O)cc3)nc2c1 [Compound 316, N-(2-(4-sulfamoylphenylamino)quinazolin-7-yl)acetamide] | < 5 | – | – | – | EC50 (A2780 cells; [3]): < 5 µM
30 | CNS(=O)(=O)Cc1ccc(Nc2ncc3cccc(OC)c3n2)cc1 [Compound 498, 1-(4-(8-methoxyquinazolin-2-ylamino)phenyl)-N-methylmethanesulfonamide] | < 5 | – | – | – | EC50 (A2780 cells; [3]): 5 to 10 µM
31 | CCN1CC(Oc2cccc3cnc(Nc4ccc(S(N)(=O)=O)cc4)nc23)C1 [Compound 50, 4-[8-(1-Ethyl-azetidin-3-yloxy)-quinazolin-2-ylamino]-benzenesulfonamide] | – | – | < 5 | < 5 | –
32 | NC(=O)c1cccc(-c2ccc3cnc(Nc4ccc(S(N)(=O)=O)cc4)nc3c2)c1 [Compound 123, 3-[2-(4-Sulfamoyl-phenylamino)-quinazolin-7-yl]-benzamide] | – | – | < 5 | 5 to 10 | –
33 | CC(C)COc1cccc2cnc(Nc3ccc(S(N)(=O)=O)cc3)nc12 [Compound 310, 4-(8-isobutoxyquinazolin-2-ylamino)benzenesulfonamide] | < 5 | – | – | – | EC50 (A2780 cells; [3]): < 5 µM
